Earlier results in US8790688B2, “Wound care device for local treatment of pain in a wound” (Coloplast A/S, priority 2001, dated 2014).

details: reported lowest range for systemic effect

Row | plasma concentration for systemic effect in the lowest range [ng/mL] | SMILES
1 | 270000 | CC(=O)Oc1ccccc1C(=O)O [Acetylsalicylic acid]
2 | 3000 | CC(C(=O)O)c1cccc(C(=O)c2ccccc2)c1 (stereo not shown) [Ketoprofen]
3 | 10000 | CC(C)Cc1ccc(C(C)C(=O)O)cc1 (stereo not shown) [Ibuprofen]
4 | 1000 | CN1C(C(=O)Nc2ccccn2)=C(O)c2ccccc2S1(=O)=O [Piroxicam]
